Data set [1] concerns 3T3-L1 adipocytes. The data set can be described thus: MTT assay of cell viability of adipocytes. Type of data set: cell-based, mouse. The conditions noted are these: 24 hr. The protocol:
(§1) The MTT assay of 3T3-L1 adipocytes grown in the medium containing vehicle or cytopiloyne at the indicated concentration for 24 hr is shown (A). 3T3-L1 pre-adipocytes were initiated for differentiation with DMSO (vehicle) and a mixture of Dex, IBMX and insulin for 2 days (B). The differentiating cells were then incubated with vehicle (inducer), rosiglitazone (RSG) or different doses of cytopiloyne until complete differentiation occurred. Lipid droplets from all the cells were visualized by Oil-Red-O staining and examined by light microscopy (left panel). Scale bars=10 μm. Oil Red O inside the cells was extracted and quantified at 520 nm (right panel). Expression of PPAR-γ and C/EBPα in 3T3-L1 cells treated with inducer in the presence of rosiglitazone (RSG) or cytopiloyne was analyzed by Western blot (C). The relative expression level (REL) of aP2 and adiponectin in 3T3-L1 cells was measured using real-time PCR (D). Effect of cytopiloyne on differentiation of human SGBS cells. The cells were incubated with DMEM/F12 medium (vehicle) or differentiation medium for 3 days (E). The cells were then incubated with vehicle (inducer) and cytopiloyne (25 μM) until a complete differentiation. […]
MTT assay was used to determine cell viability of adipocytes. […] The plate was measured at 570 nm (signal) and 650 nm (reference) using a microplate reader (UVM340, Biochrom, UK).
(In general: Formazan colour is commonly taken as a measure of viable cells.)

Data set [2] concerns 3T3-L1 pre-adipocytes. The data set can be described thus: Differentiation of 3T3-L1 pre-adipocytes, Oil Red O staining and lipid quantification. The note with it: 3T3-L1, inducer (Dex, IBMX and insulin) plus test substance. Type of data set: cell-based, mouse. The protocol: as §1, with “(E).” for “(E). The cells were then incubated with vehicle (inducer) and cytopiloyne (25 μM) until a complete differentiation.”
(§2) The differentiated adipocytes were washed with phosphate-buffered saline (PBS) and fixed with 4% formaldehyde for 15 min. […] For lipid quantification, isopropanol was used to extract the intracellular oil red O, followed by measurement at 520 nm using a microplate reader.

Data set [3] has as its system human SGBS cells. Kind of data set: Differentiation of human SGBS cells, Oil Red O staining. Type of data set: cell-based. The conditions noted are these: 25 μM. The protocol: as §1, with “(E).” for “(E). The cells were then incubated with vehicle (inducer) and cytopiloyne (25 μM) until a complete differentiation.”
as §2

In data set [4] the test system is PPARγ. Kind of data set: PPARγ expression in 3T3-L1 cells (Western blot). In kind it is cell-based, mouse. The note with it: inducer plus test substance. (In general: A western blot detects proteins with antibodies after separation by electrophoresis.)
Procedure: 3T3-L1 pre-adipocytes were initiated for differentiation with DMSO (vehicle) and a mixture of Dex, IBMX and insulin for 2 days (B). The differentiating cells were then incubated with vehicle (inducer), rosiglitazone (RSG) or different doses of cytopiloyne until complete differentiation occurred. […] Expression of PPAR-γ and C/EBPα in 3T3-L1 cells treated with inducer in the presence of rosiglitazone (RSG) or cytopiloyne was analyzed by Western blot (C).
3T3-L1 cells were maintained in DMEM medium containing 10% FBS, 4 mM glutamine, 4.5 g/L glucose, 1 mM sodium pyruvate, and 1.5 g/L sodium bicarbonate. The differentiation of 3T3-L1 cells into adipocytes was initiated by the addition of 10 μM Dex, 0.5 mM IBMX and 10 μg/mL insulin to the confluent cells for 2 days. The cells were then differentiated in medium containing 10 μg/mL insulin together with DMSO, rosiglitazone and cytopiloyne for an additional 8 to 10 days. The medium was changed every 2 days until the differentiation was complete.
Data set [5] deals with C/EBPα. Kind of data set: C/EBPα expression in 3T3-L1 cells (Western blot). Type of data set: cell-based, mouse. The conditions noted are these: inducer plus test substance. The procedure:
as §1
Western Blot. […] After developing with ECL substrate (GE Healthcare, UK), the membranes were detected using FLUORCHEM™ HD2 system (Bio-Techne, Minneapolis, Minn., USA).

For data set [6], the system named is aP2. Kind of data set: aP2 expression in 3T3-L1 cells (real-time PCR). Type of data set: cell-based, mouse. The procedure:
as §1, with “differentiation. The cells were stained with Oil Red O and photographed. Scale bar=20 μm.” for “differentiation.”
A general note: Real-time PCR tracks product formation cycle by cycle.

Data set [7] relates to adiponectin. Kind of data set: Adiponectin expression in 3T3-L1 cells (real-time PCR). In kind it is cell-based, mouse. The procedure:
as §1, with “differentiation. The cells were stained with Oil Red O and photographed. Scale bar=20 μm.” for “differentiation.”

On to `CC#CC#CC#CC#CCCC(CO)O[C@@H]1O[C@H](CO)[C@@H](O)[C@H](O)[C@H]1O` (stereo partly drawn) [cytopiloyne, 2-β-D-glucopyranosyloxy-1-hydroxytrideca-5,7,9,11-tetrayne], for which the “cytotoxicity (MTT)” value in data set [1] (3T3-L1, 25 μM or less) is recorded as “did not show cytotoxicity”; in data set [1] (3T3-L1, 50 μM) it was “slight cytotoxicity”. Also, the “production of lipid droplets in adipocytes” value in data set [2] is “dose-dependently inhibited this production”. In addition, the “production of lipid droplets” value in data set [3] is “inhibitory effect of cytopiloyne on the production of lipid droplets was confirmed”. Moreover, the “PPARγ expression up-regulated by the inducer” value in data set [4] was “abolished the up-regulation”. The “C/EBPα expression up-regulated by the inducer” value in data set [5] is reported as “abolished the up-regulation”. Moreover, the “expression level of aP2 up-regulated by the inducer” value in data set [6] is listed as “abolished this up-regulation”. In data set [7], the “expression level of adiponectin up-regulated by the inducer” value is reported as “abolished this up-regulation”.

Source of the values: patent US10632165B2, “Beneficial effect of Bidens pilosa on fat decrease and muscle increase” (Academia Sinica, priority 2016, dated 2020).
